The record followed here is EP1501514B1, “PROTEIN KINASE MODULATORS AND METHODS OF USE” (Exelixis, Inc., priority 2002, dated 2003).

Where only a bound is given, the exact number is not on record here.

The target in the assay is T1, Chk1 (Homo sapiens, UniProt O14757).
T1 construct: purchased Upstate Biotechnology
T1 sequence (O14757 1-476): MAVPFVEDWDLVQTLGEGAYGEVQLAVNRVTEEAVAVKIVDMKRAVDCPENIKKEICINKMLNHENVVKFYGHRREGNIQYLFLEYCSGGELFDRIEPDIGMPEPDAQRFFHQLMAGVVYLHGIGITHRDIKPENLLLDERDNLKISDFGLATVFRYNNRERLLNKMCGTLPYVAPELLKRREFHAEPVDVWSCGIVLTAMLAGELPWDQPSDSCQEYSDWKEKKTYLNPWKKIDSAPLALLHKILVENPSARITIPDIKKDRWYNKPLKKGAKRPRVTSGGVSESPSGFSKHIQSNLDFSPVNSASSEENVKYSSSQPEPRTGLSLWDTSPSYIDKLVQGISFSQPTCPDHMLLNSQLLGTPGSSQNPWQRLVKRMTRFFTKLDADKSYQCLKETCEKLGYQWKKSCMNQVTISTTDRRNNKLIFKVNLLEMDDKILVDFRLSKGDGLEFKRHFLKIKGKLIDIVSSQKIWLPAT
The assay can be described thus: Chk1 assay: incorporation of γ-33P ATP into immobilized myelin basic protein. Format: biochemical. Conditions: Table 11; Chk1 only. As for the experimental part: Chk1 and Chk2 assays were performed by measuring incorporation of γ-^33P ATP into immobilized myelin basic protein (MBP). High binding white 384 well plates (Greiner) were coated with MBP (Sigma #M-1891) by incubation of 60ul/well of 20µg/ml MBP in Tris-buffered saline (TBS; 50mM Tris pH 8.0, 138mM NaCl, 2.7mM KCl) for 24 hours at 4° C. Plates were washed 3X with 100µl TBS. Kinase reactions were carried out in a total volume of 34µl in kinase buffer (5mM Hepes pH 7.6, 15mM NaCl, 0.01% bovine gamma globulin (Sigma #I-5506), 10mM MgCl2, 1mM DTT, 0.02% TritonX-100). Compound dilutions were performed in DMSO and added to assay wells to a final DMSO concentration of 1%. Each data point was measured in duplicate, and at least two duplicate assays were performed for each individual compound determination. Chkl and Chk2 enzymes (Upstate Biotechnology) were added to final concentrations of 10nM (Chkl) or 20nM (Chk2). A mixture of unlabeled ATP and γ-^33P ATP was added to start the reaction (2x10^6 cpm of γ-^33P ATP per well (3000Ci/mmole) and either 10µM or 30µM unlabeled ATP (for Chkl and Chk2 assays respectively). The reaction was carried out for 1 hour at room temperature with shaking. Plates were washed 7x with TBS, followed by the addition of 50µl/well scintillation fluid (Wallac). Plates were read using a Wallac Trilux counter. This is only one format of such assays, various other formats are possible, as known to those skilled in the art.
The above assay procedure can be used to determine the IC50 for inhibition and/or the inhibition constant Ki. The IC50 is defined as the concentration of compound required to reduce the enzyme activity by 50% under the conditions of the assay. […] The Ki for a compound may be determined from the IC50 based on three assumptions. First, only one compound molecule binds to the enzyme and there is no cooperativity. […] Third, the enzymatic rate of the enzyme-inhibitor complex is zero. The rate (i.e., compound concentration) data are fitted to the equation: V = Vmax E0 [I-((E0+I0+Kd)-sqrt(((E0+I0+Kd))^2 -4E0 I0))/(2E0)] [formula]
One may read the IC50 as the midpoint of a concentration-inhibition curve. Turning to `CC(=O)NCCNC(=O)c1nc(-c2ccccc2)cnc1N` [compound 47, N-[2-(acetylamino)ethyl]-3-amino-6-phenylpyrazine-2-carboxamide], the IC50 was > 10000 nM.
`NNC(=O)c1nc(-c2ccccc2)cnc1N` [compound 48, 3-amino-6-phenylpyrazine-2-carbohydrazide]: the IC50 is 1000 to 10000 nM.
`Nc1ncc(-c2ccccc2)nc1C(=O)NO` [compound 49, 3-amino-N-hydroxy-6-phenylpyrazine-2-carboxamide]: the IC50 lay in the range of 1000 to 10000 nM.
With `CCOc1cccc(-c2cnc(N)c(C(=O)NC)n2)c1` [compound 50, 3-amino-6-[3-(ethyloxy)phenyl]-N-methylpyrazine-2-carboxamide], the IC50 fell in the range of 1000 to 10000 nM.
`CCOc1ccc(-c2cnc(N)c(C(=O)NC)n2)cc1` [compound 52, 3-amino-6-[4-(ethyloxy)phenyl]-N-methylpyrazine-2-carboxamide] yielded an IC50 of 1000 to 10000 nM.
`CNC(=O)c1nc(-c2cccc(C)c2)cnc1N` [compound 53, 3-amino-N-methyl-6-(3-methylphenyl)pyrazine-2-carboxamide] had an IC50 of 50 to 1000 nM.
Regarding `CNC(=O)c1nc(-c2ccc(OC)cc2)cnc1N` [compound 54, 3-amino-N-methyl-6-[4-(methyloxy)phenyl]pyrazine-2-carboxamide], the IC50 was 1000 to 10000 nM.
The molecule `CNC(=O)c1nc(-c2cccc(-c3ccccc3)c2)cnc1N` [compound 55, 3-amino-6-biphenyl-3-yl-N-methylpyrazine-2-carboxamide] came in with an IC50 of 50 to 1000 nM.
The molecule `CNC(=O)c1nc(-c2cccc(NC(C)=O)c2)cnc1N` [compound 56, 6-[3-(acetylamino)phenyl]-3-amino-N-methylpyrazine-2-carboxamide] registered an IC50 of 50 to 1000 nM.
In turn, `CNC(=O)c1nc(-c2ccc(F)c(C)c2)cnc1N` [compound 61, 3-amino-6-(4-fluoro-3-methylphenyl)-N-methylpyrazine-2-carboxamide] gave an IC50 of 50 to 1000 nM.
As for `CNC(=O)c1nc(-c2cccnc2)cnc1N` [compound 62, 3-amino-N-methyl-6-pyridin-3-ylpyrazine-2-carboxamide], the IC50 fell in the range of 1000 to 10000 nM.
`CNC(=O)c1cccc(-c2cnc(N)c(C(=O)NC)n2)c1` [compound 64, 3-amino-N-methyl-6-{3-[(methylamino)carbonyl]phenyl}pyrazine-2-carboxamide] showed an IC50 of 1000 to 10000 nM.
For the molecule `CNC(=O)c1nc(-c2cccc(C(C)=O)c2)cnc1N` [compound 65, 6-(3-acetylphenyl)-3-amino-N-methylpyrazine-2-carboxamide], the IC50 lay in the range of 1000 to 10000 nM.
With `CNC(=O)c1nc(-c2noc(-c3cccnc3)n2)cnc1N` [compound 66, 3-amino-N-methyl-6-(5-pyridin-3-yl-1,2,4-oxadiazol-3-yl)pyrazine-2-carboxamide], the IC50 was > 10000 nM.
As to `CNC(=O)c1nc(-c2noc(C3CCCCC3)n2)cnc1N` [compound 68, 3-amino-6-(5-cyclohexyl-1,2,4-oxadiazol-3-yl)-N-methylpyrazine-2-carboxamide], the IC50 was > 10000 nM.
In the case of `CNC(=O)c1nc(-c2noc(C)n2)cnc1N` [compound 71, 3-amino-N-methyl-6-(5-methyl-1,2,4-oxadiazol-3-yl)pyrazine-2-carboxamide] it was 1000 to 10000 nM; in that of `CNC(=O)c1nc(-c2noc(-c3ccncc3)n2)cnc1N` [compound 73, 3-amino-N-methyl-6-(5-pyridin-4-yl-1,2,4-oxadiazol-3-yl)pyrazine-2-carboxamide], > 10000 nM.
`Cc1cccc(-c2cnc(N)c(C(=O)NCCO)n2)c1` [compound 329, 3-amino-N-(2-hydroxyethyl)-6-(3-methylphenyl)pyrazine-2-carboxamide]: the IC50 was in the range of 1000 to 10000 nM.
The molecule `CNC(=O)c1nc(-c2cccc(C(=O)NCc3ccc(C(C)(C)C)cc3)c2)cnc1N` [compound 353, 3-amino-6-{3-[({[4-(1,1-dimethylethyl)phenyl]methyl}amino)carbonyl]phenyl}-N-methylpyrazine-2-carboxamide] returned an IC50 of 50 to 1000 nM.
